Source: patent US8951752B2, “N-demethyase genes and uses thereof” (priority 2011, dated 2015)
Several values for one entry are separate records, joined by “and”; a condition that tells them apart may be missing. Identical values can stand only once. Like-named read-outs stand apart in the source and are kept apart here.

Assays:
NdmB-His6 = biological target: T1, NdmB-His6 (Pseudomonas putida, UniProt H9N290); test: Methylxanthine N-demethylase assay and kinetics, NdmB-His6 with His6-NdmD; format: biochemical, Pseudomonas putida CBB5; conditions: for N-demethylase activity: NdmB; for Km: 30° C., pH 7.5, ∞ where no activity
T1 construct: made in house; host or cells: E. coli BL21(DE3)
T1 sequence (H9N290 1-355): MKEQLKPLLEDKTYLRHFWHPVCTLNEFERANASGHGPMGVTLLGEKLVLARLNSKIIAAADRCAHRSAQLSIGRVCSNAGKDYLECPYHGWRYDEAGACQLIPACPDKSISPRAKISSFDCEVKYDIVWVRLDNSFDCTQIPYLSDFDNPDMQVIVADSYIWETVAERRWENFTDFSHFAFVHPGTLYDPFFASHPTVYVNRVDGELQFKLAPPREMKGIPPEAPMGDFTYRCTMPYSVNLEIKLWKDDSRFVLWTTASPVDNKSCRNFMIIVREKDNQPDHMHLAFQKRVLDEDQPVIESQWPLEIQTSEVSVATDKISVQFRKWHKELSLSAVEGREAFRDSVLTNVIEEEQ
Method: (§1) Methylxanthine N-demethylase activity assay contained, in 1-ml total volume, 0.5 mM methylxanthine, 1 mM NADH, 50 μM Fe(NH4)2(SO4)2, and an appropriate amount of NdmA-His6 or NdmB-His6 (7.4 μg-2.5 mg protein depending on substrate specificity) in 50 mM KPi buffer (pH 7.5). Approximately 4 U of partially purified reductase, prepared as described previously (Summers et al., 2011) or 59 U of purified His6-NdmD was added to reaction mixture. Catalase from bovine liver (4,000 U) was also added to reactions containing His6-NdmD. The reaction mixture was incubated at 30° C. with 300 rpm shaking on an incubating microplate shaker (VWR, Radnor, Pa.). Periodically, a small aliquot was sampled from the reaction mixture and mixed with equal volume of acetonitrile for quantifying concentrations of methylxanthines and N-demethylated products by HPLC. One unit of N-demethylase activity was defined as the consumption of one […] methylxanthine per minute.
(§2) Apparent kinetic parameters of NdmA-His6 and NdmB-His6 were determined by measuring the initial rate of disappearance (vo) of methylxanthines in 50 mM KPi buffer (pH 7.5) at 30° C. The initial substrate concentrations (ESI) used in these experiments were from 25 to 500 μM. Substrates were incubated with His6-NdmD plus either NdmA-His6 or NdmB-His6 under standard conditions for 15 minutes. At 1, 5, 10, and 15 minutes, samples were removed from the reaction mixtures to quantitate substrate concentrations by HPLC. Plots of substrate concentrations against time were used to determine the initial rates of disappearance of substrates which were linear over 15 minutes. The apparent kinetic parameters were determined from Michaelis-Menten plots of vo against [S] fitted with the equation

NdmA-His6 = biological target: T2, NdmA-His6 (Pseudomonas putida, UniProt H9N289); test: Methylxanthine N-demethylase assay and kinetics, NdmA-His6 with His6-NdmD; format: biochemical, Pseudomonas putida CBB5
T2 construct: made in house; host or cells: E. coli BL21(DE3)
T2 sequence (H9N289 1-351): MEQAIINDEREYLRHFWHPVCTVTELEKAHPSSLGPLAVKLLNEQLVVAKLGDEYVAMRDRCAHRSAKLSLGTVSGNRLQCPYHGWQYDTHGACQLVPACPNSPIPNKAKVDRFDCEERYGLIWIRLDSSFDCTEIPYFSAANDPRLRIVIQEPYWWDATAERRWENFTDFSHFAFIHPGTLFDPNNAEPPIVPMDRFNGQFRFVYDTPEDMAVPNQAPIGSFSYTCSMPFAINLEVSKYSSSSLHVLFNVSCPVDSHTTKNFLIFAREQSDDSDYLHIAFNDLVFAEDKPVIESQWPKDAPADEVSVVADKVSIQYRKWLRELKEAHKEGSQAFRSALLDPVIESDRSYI
Method: as §1, §2

[1] = biological target: T3, N-demethylase (Ndm: NdmA and NdmB subunits) (Pseudomonas putida, UniProt H9N289+H9N290); test: Methylxanthine N-demethylase activity assay with purified Ndm plus partially purified Ccr; format: biochemical, Pseudomonas putida CBB5; conditions: for Products identified: same products at 500 and 200 μM substrate; for Relative N-demethylase activity: relative to paraxanthine; for O-demethylation by Ndm: prolonged incubation
T3 construct: lane 3, natural Ndm purified from P. putida CBB5; made in house; host or cells: purified from the natural strain Pseudomonas putida CBB5 (DEAE, Phenyl and Q Sepharose); not recombinant
T3 sequence (H9N289 1-351): T2 sequence (H9N289 1-351)
T3 sequence (H9N290 1-355): T1 sequence (H9N290 1-355)
Method: Methylxanthine N-demethylase activity assay contained, in 1-mL total volume, 0.5 mM methylxanthine, 1 mM NADH, 50 μM Fe(NH4)2(SO4)2, and an appropriate amount of Ndm (0.08-7.5 mg protein, depending on purity of the protein) in 50 mM KPi buffer. Approximately 4 U of partially purified Ccr was added to reaction mixture when assaying Ndm in Phenyl Sepharose and Q Sepharose eluant-fractions (Ccr was not added to the enzyme reaction mixture when assaying Ndm activity in DEAE Sepharose eluant-fractions because Ccr co-eluted with Ndm). The reaction mixture was incubated at 30° C. with 300 rpm shaking on an incubating microplate shaker (VWR). Periodically, a small aliquot was sampled from the reaction mixture and mixed with equal volume of acetonitrile for quantifying concentrations of methylxanthines and N-demethylated products by HPLC. One unit of N-demethylase activity was defined as the consumption of one μmole methylxanthine per minute. When Ndm was coupled with the reductase and ferredoxin components of naphthalene dioxygenase of Pseudomonas sp. strain 9816 (Haigler & Gibson, 1990a; Haigler & Gibson, 1990b), 30 and 100 μg of the respective proteins were used. Spinach ferredoxin reductase and ferredoxin were also substituted for Ccr as described by Subramanian et al. (1979).
Determination of Kinetic Parameters. Apparent kinetic parameters of Ndm were determined by measuring the initial rate of disappearance (vo) of paraxanthine or 7-methylxanthine in 50 mM KPi buffer (pH 7.5) at 30° C. The paraxanthine and 7-methylxanthine concentrations ([S]) used in these experiments were from 20 to 500 μM. Substrates were incubated with Ndm and Ccr under standard conditions for 15 minutes. At 1, 5, 10, and 15 minutes, samples were removed from the reaction mixtures to quantitate substrate concentrations by HPLC. Plots of substrate concentrations against time were used to determine the initial rates of disappearance of substrates which were linear over 15 minutes. The apparent kinetic parameters were determined from Michaelis-Menten plots of Vo against [S] fitted with the equation
Determination of Oxygen Requirement. Oxygen consumption by Ndm during N-demethylation of paraxanthine was determined in a closed reaction vessel equipped with a Clarke-type oxygen electrode (Digitial Modell 0, Rank Brothers Ltd., Cambridge, England). The electrode was calibrated by using glucose oxidase (Sigma) and glucose for consumption of oxygen. Ndm activity assay was performed at 30° C. in a total volume of 1 ml of air-saturated 50 mM KPi buffer (pH 7.5) with 100 μM paraxanthine, 200 μM NADH, 50 μM Fe(NH4)2(SO4)2, 0.2 mg purified Ndm, and 4 U partially purified Ccr. The reaction was initiated by adding Ndm and partially purified Ccr after equilibration of all other reaction components for 3.3 minutes. After 13 minutes, a 100-μL aliquot was withdrawn from the reaction, immediately mixed with equal volume of acetonitrile to stop the enzyme reaction, and analyzed for N-demethylation product by HPLC. Background oxygen consumption, possibly due to NADH oxidase enzyme activity in the partially purified Ccr, was quantitated in control reactions containing all reaction components except paraxanthine.
Formaldehyde Determination. […] Twenty μL Nash reagent was added to 50 μl Ndm reaction sample plus 50 μl acetonitrile. This mixture was incubated at 51° C. for 12 minutes.

[2] = biological target: T4, Caffeine dehydrogenase (Cdh) from CBB1 (Pseudomonas sp., UniProt D7REY3); conditions: cited from earlier work
T4 sequence (D7REY3 1-791): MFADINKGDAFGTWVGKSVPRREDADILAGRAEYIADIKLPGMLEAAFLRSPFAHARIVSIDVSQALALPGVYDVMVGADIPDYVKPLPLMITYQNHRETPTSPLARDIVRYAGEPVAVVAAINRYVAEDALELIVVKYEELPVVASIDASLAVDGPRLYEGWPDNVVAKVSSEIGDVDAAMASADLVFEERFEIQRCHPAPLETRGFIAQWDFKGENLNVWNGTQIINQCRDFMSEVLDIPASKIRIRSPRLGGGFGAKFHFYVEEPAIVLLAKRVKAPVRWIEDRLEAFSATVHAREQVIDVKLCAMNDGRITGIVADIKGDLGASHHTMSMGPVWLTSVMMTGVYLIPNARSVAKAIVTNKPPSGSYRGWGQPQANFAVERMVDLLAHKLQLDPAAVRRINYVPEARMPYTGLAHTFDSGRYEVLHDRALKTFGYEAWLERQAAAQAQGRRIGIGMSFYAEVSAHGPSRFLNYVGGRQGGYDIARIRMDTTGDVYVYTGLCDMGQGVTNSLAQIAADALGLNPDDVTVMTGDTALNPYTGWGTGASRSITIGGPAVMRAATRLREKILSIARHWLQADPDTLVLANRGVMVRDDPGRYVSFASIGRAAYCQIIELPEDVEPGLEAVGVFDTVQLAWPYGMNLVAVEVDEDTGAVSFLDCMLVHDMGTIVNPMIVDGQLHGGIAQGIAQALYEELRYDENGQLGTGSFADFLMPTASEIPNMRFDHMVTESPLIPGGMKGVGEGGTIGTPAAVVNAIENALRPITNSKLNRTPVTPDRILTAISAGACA
T4 sequence (D7REY4 1-295 partner): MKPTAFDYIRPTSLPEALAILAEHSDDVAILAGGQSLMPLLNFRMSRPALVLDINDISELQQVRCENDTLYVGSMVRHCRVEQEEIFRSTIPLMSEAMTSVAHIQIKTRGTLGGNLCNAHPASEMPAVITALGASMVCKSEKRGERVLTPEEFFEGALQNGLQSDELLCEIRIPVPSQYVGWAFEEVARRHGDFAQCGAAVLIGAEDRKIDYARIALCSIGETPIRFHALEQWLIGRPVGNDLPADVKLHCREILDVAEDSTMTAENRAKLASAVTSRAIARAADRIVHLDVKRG
T4 sequence (D7REY5 1-167 partner): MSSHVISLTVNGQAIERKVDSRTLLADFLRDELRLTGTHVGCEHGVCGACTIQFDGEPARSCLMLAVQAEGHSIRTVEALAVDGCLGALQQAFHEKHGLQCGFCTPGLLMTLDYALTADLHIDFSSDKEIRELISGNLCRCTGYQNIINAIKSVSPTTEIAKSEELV

[3] = tested on: cell extracts prepared from P. putida CBB5; test: NADH-dependent N-demethylase activity of CBB5 cell extracts; format: biochemical, Pseudomonas putida CBB5; conditions: 0.5 mM substrate, 7.2 mg mL^−1 protein
[4] = 100 μM paraxanthine, 0.2 mg Ndm, 4 U Ccr, after 13 minutes

Cn1c(=O)[nH]c(=O)c2[nH]cnc21 [3-Methylxanthine, 3-methylxanthine]
Product (NdmB-His6; NdmB-His6): Xanthine
N-demethylase activity (NdmA-His6; NdmA): inactive
Km (NdmA-His6; NdmA-His6, 30° C., pH 7.5, ∞ where no activity): ∞
Products identified [1]: xanthine
Relative N-demethylase activity ([1]; substrate conc. 200 μM): 68.9 ± 2.6
Relative N-demethylase activity ([1]; substrate conc. 500 μM): 55.2 ± 6.0

Cn1c(=O)c2[nH]cnc2n(C)c1=O [Theophylline, 1,3-dimethylxanthine]
activity of Cdh [2]: no activity
activity of Cdh ([2]; substrate specificity study): 5%
Products identified [1]: 1- & 3-methylxanthine, and xanthine
Relative N-demethylase activity ([1]; substrate conc. 200 μM): 14.2 ± 1.6
Relative N-demethylase activity ([1]; substrate conc. 500 μM): 17.6 ± 1.0
degradation rate compared with paraxanthine [3]: significantly slower

Cn1c(=O)[nH]c2ncn(C)c2c1=O [Paraxanthine, 1,7-dimethylxanthine]
N-demethylase activity (NdmB-His6): no activity
Km (NdmB-His6; NdmB-His6): ∞
N-demethylation by NdmC fraction (NdmC): not N-demethylated
oxygen consumed during N-demethylation [1, 4]: 79.5 µM
paraxanthine N-demethylated [1, 4]: 60.2 µM
Products identified [1]: xanthine and 7-methylxanthine,
Relative N-demethylase activity ([1]; substrate conc. 200 μM): 100.0 ± 3.7
Relative N-demethylase activity ([1]; substrate conc. 500 μM): 100.0 ± 3.1
time to complete utilization ([3]; 0.5 mM NADH): about 20 minutes

O=c1[nH]c(=O)c2[nH]cnc2[nH]1 [xanthine]
activity of Cdh [2]: no activity and none
product formed from paraxanthine ([1]; 7.4 mU / 7.4 units of Ndm, 90 minutes): 193.7 ± 4.0 µM and 193.7 ± 14.0 µM
N-demethylation product present ([1]; from paraxanthine, after 13 minutes): ~20.3 µM

Cn1c(=O)[nH]c2nc[nH]c2c1=O [1-methylxanthine]
N-demethylase activity (NdmB-His6): no activity
Km (NdmB-His6; NdmB-His6): ∞
catalytic efficiency relative to theophylline (NdmA-His6; NdmA): two orders of magnitude lower
Product (NdmA-His6; NdmA-His6): Xanthine

COc1cc(C(=O)O)ccc1O [vanillate]
O-demethylation by Ndm [1]: did not catalyze O-demethylation

COc1cc(C=O)ccc1O [vanillin]
O-demethylation by Ndm [1]: did not catalyze O-demethylation
